In test [1] the target is T1, hKOPr (Homo sapiens, UniProt P41145). As to the kind of experiment: biochemical. The note with it: for EC50: read-out: Potency at hKOPr EC50.
Test [2] concerns the target T2, hDOPr (Homo sapiens, UniProt P41143). As to the kind of experiment: Competitive radio binding assay with [3H]-diprenorphine on hDOPr-CHO cell membranes.
Another test concerns the target hMOPr (Homo sapiens, UniProt P35372). As to the kind of experiment: Competitive radio binding assay with [3H]-DAMGO on hMOPr-CHO cell membranes. The note with it: read-out: Ki hMOPr; [3H]-DAMGO 1 nM, 60 min 25°C; mean ± SEM.
Test [3] concerns the target T1, hKOPr. In kind it is binding. The note with it: for Ki: read-out: Ki hKOPr.
The subject of test [4] is hKOPr. Also on record: method as in Bedini et al., 2020. To be noted: result in words; ref Bedini et al., 2020; cited from earlier work.
Test [5] addresses T1, hKOPr. As to the kind of experiment: cell-based. In kind it is cell-based. The note with it: HEK293, read-out: β-Arrestin recruitment, efficacy at hKOPr Emax. A general note: Recruitment of arrestin is a read-out of receptor activation apart from second messengers.
In test [6] the target is T2, hDOPr. As to the kind of experiment: [35S]GTPγS functional assay on hDOPr-CHO cell membranes. In kind it is biochemical. As to the method:
CHO cells stably transfected with human KOPr, MOPr, and DOPr (hKOPr-CHO, hMOPr-CHO, and hDOPr-CHO, respectively) were provided by Prof. Liu-Chen (Temple University, Philadelphia, United States). The cells were grown in Gibco™ Dulbecco’s minimal essential medium (DMEM) for hKOPr-CHO or Gibco™ DMEM/F-12 for hMOPr and hDOPr. Both media were supplemented with 10% FBS (Gibco™), GlutaMAX (100 μg/mL; Gibco™), penicillin/streptomycin (100 μg/mL; Gibco™), and geneticin (G418, 400 μg/mL; Gibco™). HEK 293 cells were grown in high-glucose DMEM supplemented with 10% FBS (Gibco™), GlutaMAX (100 μg/mL; Gibco™), and penicillin/streptomycin (100 μg/mL; Gibco™). Cell cultures were maintained in a Heracell™ 150i CO2 incubator at 37°C and 5.0% CO2.
Functional assays were conducted on hKOPr-CHO, hMOPr-CHO, and hDOPr-CHO cell membranes (see above). The membranes were prepared in a buffer containing 20 mM HEPES, 10 μM GDP, cell membrane (10–30 μg), and 0.05 nM [^35S]GTPγS. The buffer containing the cell membranes was incubated with an increasing concentration of the test peptide diluted in 1 × HEPES, pH 7.4, in a total volume of 1 mL, for 60 min at 25°C. The peptide solutions were replaced by diluents for untreated controls. Non-specific binding was determined using unlabeled 10 μM GTPγS. Samples were rapidly washed three times with Tris-HCl and filtered through glass fiber filters (GF/B Whatman). The bound radioactivity was measured by liquid scintillation (Carl Roth GmbH, Karlsruhe, Germany) counting on a Packard 1600 TR Tri-Carb Beta counter (Canberra, Belgium).
On the technique in general: GTPγS resists hydrolysis and so accumulates on activated G proteins.

The subject of test [7] is hKOPr. As to the kind of experiment: Biased factor calculation from GTPγS and PRESTO-Tango data. Also on record: species or system human. The note with it: G-protein vs β-arrestin, DynA as reference; below 1 = β-arrestin bias. An excerpt:
To perform biased factor analyses, we followed the step-by-step protocol described by [Nagi and Pineyro (2016)]. In short, curve fitting was used to calculate τ and Ka values for G-protein and β-arrestin pathway activation. Log(τ/Ka) ratios were subtracted by log(τ/Ka) of DynA as the reference to yield ΔLog(τ/Ka) values for each peptide. In a final step for each peptide, ΔLog (τ/Ka) values for G-protein pathway activation were subtracted from ΔLog(τ/Ka) values for β-arrestin pathway activation and vice versa to calculate ΔΔLog(τ/Ka). The biased factor is yielded by delogging ΔΔLog (τ/Ka).
To confidently identify a G-protein-biased peptide of interest, it is essential to keep in mind that the responses we collected through GTPγS and PRESTO-Tango assay are not solely determined by drug signaling properties but also by the way the cell and different assays “perceive” the generation of this response. These different “perceptions” of the pharmacological stimulus may themselves be responsible for an imbalance among signals from different pathways. To avoid this, and to be able to correctly estimate whether a peptide is indeed biased, we applied the method proposed by [Kenakin et al. (2012)], that is based on the operational method proposed by [Black and Leff (1983)]. This method takes into consideration receptor occupation by the agonist, communication of the pharmacological stimulus to the system, and the processing of the stimulus by the system that produces the response.

Where [8] appears, read: read-out: Efficacy at hKOPr Emax.
[9] abbreviates: read-out: Ki hDOPr, [3H]-diprenorphine 1 nM, 60 min 25°C, mean ± SEM.

Read-outs that look alike come from different tables or passages of the source. Where no end group is shown, it is not given here. [ ]: non-standard residue; d: D form. βAla = NCCC(=O)O

Sequence of hMOPr (P35372 whole entry): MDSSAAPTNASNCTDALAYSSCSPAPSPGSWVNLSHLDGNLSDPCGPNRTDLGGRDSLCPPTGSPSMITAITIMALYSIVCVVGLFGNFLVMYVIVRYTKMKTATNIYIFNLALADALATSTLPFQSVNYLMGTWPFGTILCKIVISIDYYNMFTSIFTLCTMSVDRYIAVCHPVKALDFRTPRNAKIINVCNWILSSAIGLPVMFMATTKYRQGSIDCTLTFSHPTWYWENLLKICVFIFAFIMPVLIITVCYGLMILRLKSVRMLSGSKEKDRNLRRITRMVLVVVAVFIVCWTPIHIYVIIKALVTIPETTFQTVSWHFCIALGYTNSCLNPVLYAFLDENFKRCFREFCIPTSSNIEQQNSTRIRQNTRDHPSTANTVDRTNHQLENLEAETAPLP
T1 sequence (P41145 whole entry): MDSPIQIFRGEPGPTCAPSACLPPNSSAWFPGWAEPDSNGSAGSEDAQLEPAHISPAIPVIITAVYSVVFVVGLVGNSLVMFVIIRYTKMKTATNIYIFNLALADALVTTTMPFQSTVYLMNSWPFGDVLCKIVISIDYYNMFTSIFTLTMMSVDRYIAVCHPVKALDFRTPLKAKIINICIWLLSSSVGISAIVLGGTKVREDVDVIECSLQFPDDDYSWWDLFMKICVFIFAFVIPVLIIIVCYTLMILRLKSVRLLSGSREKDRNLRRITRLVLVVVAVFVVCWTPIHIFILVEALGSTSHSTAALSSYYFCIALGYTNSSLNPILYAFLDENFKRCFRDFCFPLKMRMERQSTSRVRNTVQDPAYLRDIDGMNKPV
T2 sequence (P41143 whole entry): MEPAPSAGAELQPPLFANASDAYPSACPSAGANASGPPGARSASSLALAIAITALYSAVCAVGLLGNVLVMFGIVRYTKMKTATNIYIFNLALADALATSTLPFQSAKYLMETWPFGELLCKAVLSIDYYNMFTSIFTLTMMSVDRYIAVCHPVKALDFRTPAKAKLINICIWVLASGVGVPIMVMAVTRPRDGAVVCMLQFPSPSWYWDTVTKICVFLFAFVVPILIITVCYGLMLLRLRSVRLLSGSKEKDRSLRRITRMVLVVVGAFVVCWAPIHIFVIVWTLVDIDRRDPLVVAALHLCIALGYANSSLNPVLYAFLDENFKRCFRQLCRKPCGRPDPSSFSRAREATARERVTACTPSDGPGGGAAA

The term Emax denotes the greatest response seen or fitted, relative to the assay's reference. A word on the EC50: it is the concentration at which the effect is half-maximal. By Ki is commonly meant a dissociation constant, usually derived from enzyme kinetics or from competition with a known ligand. For YGAFLRRQFAVVT [DynB_G3A/K10 A], the maximal response (Emax) on hKOPr [1] (setting [8]) came to 84 ± 3.6%. Besides, the EC50 on hKOPr [1] amounted to 16.7 ± 2.45 nM. Moreover, the Ki on hDOPr [2] (setting [9]) was 497 ± 105 nM. Moreover, the Ki at hMOPr was 90.4 ± 7.6 nM. Further, at hKOPr [3], the “Selectivity DOPr/KOPr” value is reported as 317, the “Selectivity MOPr/KOPr” value turned out to be 58 and the Ki came out at 1.57 nM.

For the molecule YGMFSRRQFKVVT [DynB_G3M/L5S], at hKOPr [1], the “agonist category at hKOPr (GTPγS)” value is “partial agonists”, the “potency for hKOPr as compared to DynB (GTPγS)” value is recorded as “strongly reduced potency” and the EC50 is 170 ± 23.7 nM. On hKOPr [1] (setting [8]), the Emax came out at 52.6 ± 1.6%. Moreover, at hDOPr [2] (setting [9]), the Ki was 8080 nM. Moreover, the Ki at hMOPr was 290 ± 17.9 nM. At hKOPr [3], the “Selectivity DOPr/KOPr” value was 1,115, the “Selectivity MOPr/KOPr” value turned out to be 40 and the inhibition constant Ki turned out to be 7.24 nM.

As to YGMFLRRQFKVVT [DynB_G3M], on hKOPr [1], the “agonist category at hKOPr (GTPγS)” value was “partial agonists” and the EC50 worked out at 14.1 ± 4.17 nM. In addition, the Emax at hKOPr [1] (setting [8]) was 54.5 ± 1.8%. Also, the Ki on hDOPr [2] (setting [9]) came to 85.3 ± 16.4 nM. In addition, the Ki at hMOPr was found to be 117 ± 6.9 nM. In addition, at hKOPr [3], the “Selectivity DOPr/KOPr” value was determined as 141, the “Selectivity MOPr/KOPr” value is 193 and the Ki was found to be 0.61 nM.

For the molecule cyclo(FG[βAla][dW]) [LOR17], the “G-protein bias at the hKOPr” value in the test on hKOPr [4] is “strong G-protein bias”.

Consider `CC(C)C[C@H](NC(=O)[C@H](Cc1ccccc1)NC(=O)CNC(=O)CNC(=O)[C@@H](N)Cc1ccc(O)cc1)C(=O)N[C@@H](CCCNC(=N)N)C(=O)N[C@@H](CCCNC(=N)N)C(=O)N[C@@H](CCC(N)=O)C(=O)N[C@@H](Cc1ccccc1)C(=O)N[C@@H](CCCCN)C(=O)N[C@H](C(=O)N[C@H](C(=O)N[C@H](C(=O)O)[C@@H](C)O)C(C)C)C(C)C` [DynB_WT, dynorphin B, reference compound], for which, on hKOPr [1], the “hKOPr % stim, stimulation of [35S]GTPγS binding” value is 120 ± 1.5%; the “preference for hKOPr over hDOPr (GTPγS)” value was determined as 12 fold; the “preference for hKOPr over hMOPr (GTPγS)” value stood at 6 fold. In addition, the Emax at hKOPr [1] (setting [8]) amounted to 120 ± 1.5%. Also, the Emax at hKOPr [1] (read-out: Emax higher than DynA) came out at 20%. This molecule came in with a Ki on hDOPr [2] of 80.2 ± 6.4 nM. The maximal effect (Emax) at hKOPr [5] was 111 ± 5.3%. This molecule returned an EC50 on hDOPr [6] of 59.3 ± 6.7 nM. In addition, the “hDOPr % stim, stimulation of [35S]GTPγS binding” value on hDOPr [6] (Table 3, normalized to DynA, mean ± SEM) was determined as 104 ± 3.6%. Besides, the “biased factor at hKOPr” value in the test with hKOPr [7] was 0.8 ± 0.2.

Regarding YGAFLRRHFKVVT [DynB_G3A/Q8H], at hKOPr [1], the “agonist category at hKOPr (GTPγS)” value is reported as “partial agonists” and the EC50 was determined as 6.77 ± 0.82 nM. The Emax at hKOPr [1] (setting [8]) turned out to be 74.9 ± 1.6%. Besides, at hDOPr [2] (setting [9]), the Ki came to 460 ± 44.2 nM. Also, the Ki on hMOPr was 41.9 ± 1.3 nM. In addition, on hKOPr [3], the “Selectivity DOPr/KOPr” value was 1,508, the “Selectivity MOPr/KOPr” value was found to be 137 and the Ki is 0.3 nM.

For FGGFLRRQFKVVT [DynB_Y1F], on hKOPr [1], the “potency for hKOPr as compared to DynB (GTPγS)” value was “strongly reduced potency” and the EC50 was found to be 393 ± 47.3 nM. Besides, the Emax at hKOPr [1] (setting [8]) was determined as 110 ± 5.5%. At hDOPr [2] (setting [9]), the Ki turned out to be 1620 nM. Also, the Ki at hMOPr is 217 ± 13.5 nM. Moreover, on hKOPr [3], the “Selectivity DOPr/KOPr” value is recorded as 44 and the Ki is 37.3 nM.

Take YGGFLRRAFKVVT [DynB_Q8A]: the Emax on hKOPr [1] (setting [8]) was 125 ± 12.3%.

With YGAFLRRQFKVVT [DynB_G3A], the Emax on hKOPr [1] (setting [8]) was determined as 83.4 ± 5.5%. Further, at hKOPr [1], the EC50 stood at 27.9 ± 8.72 nM. For the same molecule, the Ki on hDOPr [2] (setting [9]) stood at 317 ± 34.1 nM. The inhibitory constant (Ki) on hMOPr came out at 82.3 ± 7.9 nM. On hKOPr [3], the “Selectivity DOPr/KOPr” value came out at 149, the “Selectivity MOPr/KOPr” value was found to be 39 and the Ki is 2.13 nM.

As for YGGFLRRHFKVVT [DynB_Q8H], the Emax on hKOPr [1] (setting [8]) was determined as 111.5 ± 0.9%. The EC50 at hKOPr [1] amounted to 2.25 ± 0.47 nM. Further, the Ki on hDOPr [2] (setting [9]) amounted to 106 ± 17.1 nM. In addition, at hMOPr, the Ki stood at 7.7 ± 1.4 nM. In addition, at hKOPr [3], the “Selectivity DOPr/KOPr” value was 507, the “Selectivity MOPr/KOPr” value stood at 36 and the Ki amounted to 0.21 nM.

In the case of YGMFLRRHFKVVT [DynB_G3M/Q8H], at hKOPr [1], the “agonist category at hKOPr (GTPγS)” value is “partial agonists” and the EC50 was determined as 5.43 ± 0.53 nM. Further, the Emax on hKOPr [1] (setting [8]) is 42.1 ± 1.3%. Besides, on hDOPr [2] (setting [9]), the inhibition constant Ki was found to be 167 ± 19 nM. Besides, the Ki at hMOPr worked out at 97.1 ± 15.8 nM. For the same molecule, on hKOPr [3], the “Selectivity DOPr/KOPr” value is 459, the “Selectivity MOPr/KOPr” value is listed as 268 and the Ki was 0.36 nM.

YGAFSRRQFKVVT [DynB_G3A/L5S]: at hKOPr [1], the “decrease of potency compared to DynB_WT” value is reported as “more than 20 fold”, the “potency for hKOPr as compared to DynB (GTPγS)” value is “strongly reduced potency” and the half-maximal effective concentration (EC50) worked out at 116 ± 11.2 nM. For the same molecule, on hKOPr [1] (setting [8]), the Emax came to 92.5 ± 5.7%. Moreover, at hDOPr [2] (setting [9]), the Ki amounted to 3790 nM. Besides, at hMOPr, the Ki is 98.3 ± 5.9 nM. At hKOPr [3], the “Selectivity DOPr/KOPr” value is recorded as 2,195, the “Selectivity MOPr/KOPr” value amounted to 57 and the inhibition constant (Ki) was determined as 1.73 nM.

YGGFLRRQFAVVT [DynB_K10 A]: the Emax on hKOPr [1] (setting [8]) was found to be 132 ± 3.9%.

(Values after PMC11557314 (Frontiers in Pharmacology, 2024).)
